From patent US6114390A, “Amino acid derivatives, pharmaceutical compositions containing these compounds and processes for preparing them” (Karl Thomae GmbH, priority 1997, dated 2000)

Legend:
[1] = Food intake in food-deprived rats; type: in vivo, rat; details: 15 μg, bilaterally, PVN
Method: Food-deprivation experiments were conducted with male Chbb:Thom rats weighing between 300 and 350 g. The animals were individually housed for the duration of the study and allowed free access to normal food together with tap water. Food was removed from the animals for 24 hours starting at 8:00 a.m. At the end of the fasting period compound or vehicle was administered to the animals by infusion into the PVN. Food was returned to the animals and their food intake monitored at various time periods during the following 24 hour period. The food intake of animals treated with test compound was calculated as a percentage of the food intake of control animals (i.e., animals treated with vehicle).

[2] = target: T1, human Y5 receptor (Homo sapiens, UniProt Q15761); assay: Receptor binding, HEK 293 cells stably transfected with human Y5 receptor; details: read-out: Affinity IC50, humanY5/293
T1 construct: expressed in transfected cells; host or cells: HEK 293
T1 sequence (Q15761 1-445): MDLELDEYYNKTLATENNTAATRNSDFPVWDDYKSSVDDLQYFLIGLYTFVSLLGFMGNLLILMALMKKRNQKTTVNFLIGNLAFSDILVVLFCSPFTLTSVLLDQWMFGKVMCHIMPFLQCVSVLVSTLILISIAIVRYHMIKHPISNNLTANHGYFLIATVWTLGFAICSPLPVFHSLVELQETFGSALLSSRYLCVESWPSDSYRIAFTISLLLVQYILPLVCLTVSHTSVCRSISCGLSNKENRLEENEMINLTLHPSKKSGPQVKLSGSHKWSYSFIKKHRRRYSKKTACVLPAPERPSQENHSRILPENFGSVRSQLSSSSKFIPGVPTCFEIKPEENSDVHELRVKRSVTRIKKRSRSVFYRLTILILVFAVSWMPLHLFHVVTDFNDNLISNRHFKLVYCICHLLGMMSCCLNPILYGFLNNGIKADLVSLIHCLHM
Method: HEK 293 cells stably transfected with human Y5 receptor:
Centrifugated cells were cultivated as described for BHK/Y1 cells except that a concentration of 0.7 mg/ml G-418 was used, no hygromycin added and no IPTG induction was necessary. The incubation buffer, cell cultivation and receptor binding was performed as described. Final concentration was 1.5×10^6 cells/ml and centrifugation stopped as described for Y1/BHK cells.

[3] = system: NPY induced food intake; assay: Food intake in satiated rats after NPY application to the PVN; type: in vivo, rat; details: for % Inhibition of food intake: PVN, 2 h, 1 μg NPY
Method: For these determinations food intake was measured in normal satiated rats after application of NPY to the paraventricular nucleus (PVN) in the presence or absence of the test compound. […] The rats were individually housed in stainless steel cages where water and food were available ad libitum.
Rats under Pentobarbital anaesthesia were stereotactically implanted with a stainless steel double guide cannula targeted bilaterally at the PVNs. Stereotactic coordinates were: -1.8mm caudal, 0.5mm lateral to bregma and 7.0 mm below the skull surface. Injection cannulae extended the guide cannulae by 1 mm. Animals were allowed to recover from surgery for at least 10 days before being used in the experiments. Rats were handled and mock-injected during the […] recovery period to habituate them to the injection procedure.
Animals treated with both test compounds and NPY were treated first with the test compound. Then, 15 min. after PVN infusion of the test compound or vehicle (control) 1 μg of NPY was administered by PVN infusion.
Food intake was measured by placing preweighed pellets into the cages at the time of NPY injection. Pellets were removed from the cage at 2 h post NPY injection. The food intake of animals treated with test compound was calculated as a percentage of the food intake of control animals, i.e., animals treated with vehicle.

[4] = target: T2, human Y2 receptor (Homo sapiens, UniProt P49146); assay: Receptor binding, BHK cells stably expressing the human Y2 receptor; details: read-out: Affinity IC50, humanY2/BHK
T2 construct: expressed in transfected cells; host or cells: BHK
T2 sequence (P49146 1-381): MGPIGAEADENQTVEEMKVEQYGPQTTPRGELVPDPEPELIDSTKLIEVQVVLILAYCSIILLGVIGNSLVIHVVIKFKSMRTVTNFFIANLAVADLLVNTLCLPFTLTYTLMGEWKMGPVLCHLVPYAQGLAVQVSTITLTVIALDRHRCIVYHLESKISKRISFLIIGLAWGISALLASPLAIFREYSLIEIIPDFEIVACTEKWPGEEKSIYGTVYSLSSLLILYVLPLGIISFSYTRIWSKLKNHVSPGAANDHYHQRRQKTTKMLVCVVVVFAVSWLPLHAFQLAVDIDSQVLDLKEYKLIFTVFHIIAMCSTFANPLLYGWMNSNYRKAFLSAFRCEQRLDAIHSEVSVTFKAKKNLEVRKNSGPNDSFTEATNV
Method: BHK cells stably expressing the human Y1 receptor: Cells were grown in DMEM with 4.5 g/l glucose, 10% FCS, 1% PENStrep, 1 mg/ml G-418, 1 mg/ml hygromycin B. 96h before receptor binding assay 1mM IPTG was added in order to induce expression. Confluent cells were removed with 0.06% EDTA/PBS (1 min incubation) and resuspended in 15 ml incubation buffer (MEM/25 mM HEPES +1% BSA, […], 0.1% bacitracin, 3.75 mM CaCl2). After 10 min centrifugation at RT (150×g), the pellet was resuspended in 50 ml incubation buffer, respun and resuspended in 30 ml incubation buffer. After counting, the cells were diluted to a final concentration of 2.5×10^5 cells/ml. Two hundred microliters of this cell suspension was incubated 3 h at RT with 30 pM [^125 I]NPY and increasing concentrations of test compounds in a total volume of […]. The incubation was stopped by 10 min centrifugation, 3000×g at 4° C. The pellet was resuspended with 0.25 ml PBS recentrifuged and the pellet measured in a γ-counter.
BHK cells stably expressing the human Y2 receptor: Assay was performed essentially as described for human Y1 expressing BHK cells.

Which “food intake in 24 hour food deprived rats (result in words)” value [1] does the source give for `N=C(N)NCCC[C@@H](NC(=O)C(c1ccccc1)c1ccccc1)C(=O)NCc1ccc(CNC(N)=O)cc1` [Compound C] here?
Its value is “significant reduction in food intake”.

And the IC50 [2]?
Its IC50 is greater than 10 µM.

What about the “NPY induced food intake (result in words)” value [3] of the same compound?
The value was “reduced”.

And the “% Inhibition of food intake” value ([3]; 15 μg)?
The value was 25.9%.

What about the “% Inhibition of food intake” value ([3]; 30 μg) of the same compound?
Its value is 52.8%.

What about the “% Inhibition of food intake” value ([3]; 60 μg) of the same compound?
Its value is 69.8%.

And the IC50 [4]?
The IC50 was greater than 1000 nM.
